# Tested on: imiquimod-induced psoriasis
# Experiment: Imiquimod-induced psoriasis model
# Type: in vivo, mice
# Conditions: for Mean scores of the presence of peeling on the skin of animals at the area of induction of psoriasis / Mean scores of the presence of erythema on the skin of animals at the area of induction of psoriasis / Mean scores of the presence of induration on the skin of animals at the area of induction of psoriasis: mean ± SEM; for Mean PASI Scores in IMI-Psoriasis Model: mice
# In short: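 Mice given topical imiquimod (5% cream) daily on depilated backs Days 1–14; Compound A in 5% DMSO/40% PEG-400/55% saline from Day 8, clobetasol topical as reference. Daily PASI (erythema, induration, peeling, each 0–4, summed) Days 8–15; spleen weight, open-field behaviour, serum IL-1B, IL-6, IL-17, TNF-α, IL-22, IL-23 at Day 15.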
# [1] = IMI + 10 mg/kg, D8 (before start of treatment)
smiles,measurement,setting,value
"COCCn1cc(-c2ccccc2)c(-c2cn(C)c(=O)c3[nH]c(-c4cnn(C(F)(F)F)c4)cc23)cc1=O [Compound B, 4-(1-(2-methoxyethyl)-2-oxo-5-phenyl-1,2-dihydropyridin-4-yl)-6-methyl-2-(1-(trifluoromethyl)-1H-pyrazol-4-yl)-1,6-dihydro-7H-pyrrolo[2,3-c]pyridin-7-one]",Mean scores of the presence of peeling on the skin of animals at the area of induction of psoriasis,"IMI + 3 mg/kg, D15",1.3 ± 0.3
same,Mean scores of the presence of erythema on the skin of animals at the area of induction of psoriasis,[1],2.1 ± 0.1
same,Mean scores of the presence of induration on the skin of animals at the area of induction of psoriasis,[1],2.8 ± 0.2
same,Mean scores of the presence of peeling on the skin of animals at the area of induction of psoriasis,[1],2.4 ± 0.3
same,Mean scores of the presence of erythema on the skin of animals at the area of induction of psoriasis,"IMI + 10 mg/kg, D9",1.5 ± 0.2
same,Mean scores of the presence of induration on the skin of animals at the area of induction of psoriasis,"IMI + 10 mg/kg, D9",2.0 ± 0.2
same,Mean scores of the presence of peeling on the skin of animals at the area of induction of psoriasis,"IMI + 10 mg/kg, D9",2.1 ± 0.2
same,Mean scores of the presence of erythema on the skin of animals at the area of induction of psoriasis,"IMI + 10 mg/kg, D10",1.8 ± 0.2
same,Mean scores of the presence of induration on the skin of animals at the area of induction of psoriasis,"IMI + 10 mg/kg, D10",2.1 ± 0.2
same,Mean scores of the presence of peeling on the skin of animals at the area of induction of psoriasis,"IMI + 10 mg/kg, D10",2.0 ± 0.3
same,Mean scores of the presence of erythema on the skin of animals at the area of induction of psoriasis,"IMI + 10 mg/kg, D11",1.5 ± 0.2
same,Mean scores of the presence of induration on the skin of animals at the area of induction of psoriasis,"IMI + 10 mg/kg, D11",1.5 ± 0.2
same,Mean scores of the presence of peeling on the skin of animals at the area of induction of psoriasis,"IMI + 10 mg/kg, D11",1.9 ± 0.1
same,Mean scores of the presence of erythema on the skin of animals at the area of induction of psoriasis,"IMI + 10 mg/kg, D12",0.9 ± 0.3
same,Mean scores of the presence of induration on the skin of animals at the area of induction of psoriasis,"IMI + 10 mg/kg, D12",1.1 ± 0.1
same,Mean scores of the presence of peeling on the skin of animals at the area of induction of psoriasis,"IMI + 10 mg/kg, D12",1.0 ± 0.2
same,Mean scores of the presence of erythema on the skin of animals at the area of induction of psoriasis,"IMI + 10 mg/kg, D13",0.6 ± 0.3
same,Mean scores of the presence of induration on the skin of animals at the area of induction of psoriasis,"IMI + 10 mg/kg, D13",1.0 ± 0.0
same,Mean scores of the presence of peeling on the skin of animals at the area of induction of psoriasis,"IMI + 10 mg/kg, D13",0.4 ± 0.2
same,Mean scores of the presence of erythema on the skin of animals at the area of induction of psoriasis,"IMI + 10 mg/kg, D14",0.1 ± 0.1
same,Mean scores of the presence of induration on the skin of animals at the area of induction of psoriasis,"IMI + 10 mg/kg, D14",0.6 ± 0.2
same,Mean scores of the presence of peeling on the skin of animals at the area of induction of psoriasis,"IMI + 10 mg/kg, D14",0.5 ± 0.2
same,Mean scores of the presence of erythema on the skin of animals at the area of induction of psoriasis,"IMI + 10 mg/kg, D15",0.1 ± 0.1
same,Mean scores of the presence of induration on the skin of animals at the area of induction of psoriasis,"IMI + 10 mg/kg, D15",0.4 ± 0.2
same,Mean scores of the presence of peeling on the skin of animals at the area of induction of psoriasis,"IMI + 10 mg/kg, D15",0.4 ± 0.2
same,Mean PASI Scores in IMI-Psoriasis Model,"IMI + 1 mg/kg, D8 (before start of treatment)",7.0 ± 0.3
same,Mean PASI Scores in IMI-Psoriasis Model,"IMI + 1 mg/kg, D9",6.8 ± 0.6
same,Mean PASI Scores in IMI-Psoriasis Model,"IMI + 1 mg/kg, D10",6.0 ± 0.3
same,Mean PASI Scores in IMI-Psoriasis Model,"IMI + 1 mg/kg, D11",6.5 ± 0.5
same,Mean PASI Scores in IMI-Psoriasis Model,"IMI + 1 mg/kg, D12",5.6 ± 0.3
same,Mean PASI Scores in IMI-Psoriasis Model,"IMI + 1 mg/kg, D13",5.6 ± 0.5
same,Mean PASI Scores in IMI-Psoriasis Model,"IMI + 1 mg/kg, D14",5.6 ± 0.4
same,Mean PASI Scores in IMI-Psoriasis Model,"IMI + 1 mg/kg, D15",5.1 ± 0.4
same,Mean PASI Scores in IMI-Psoriasis Model,"IMI + 3 mg/kg, D8 (before start of treatment)",7.4 ± 0.3
same,Mean PASI Scores in IMI-Psoriasis Model,"IMI + 3 mg/kg, D9",6.0 ± 0.4
same,Mean PASI Scores in IMI-Psoriasis Model,"IMI + 3 mg/kg, D10",5.8 ± 0.4
same,Mean PASI Scores in IMI-Psoriasis Model,"IMI + 3 mg/kg, D11",5.4 ± 0.3
same,Mean PASI Scores in IMI-Psoriasis Model,"IMI + 3 mg/kg, D12",5.4 ± 0.3
same,Mean PASI Scores in IMI-Psoriasis Model,"IMI + 3 mg/kg, D13",5.0 ± 0.4
same,Mean PASI Scores in IMI-Psoriasis Model,"IMI + 3 mg/kg, D14",4.6 ± 0.4
same,Mean PASI Scores in IMI-Psoriasis Model,"IMI + 3 mg/kg, D15",3.5 ± 0.5
same,Mean PASI Scores in IMI-Psoriasis Model,[1],7.3 ± 0.4
same,Mean PASI Scores in IMI-Psoriasis Model,"IMI + 10 mg/kg, D9",5.6 ± 0.4
same,Mean PASI Scores in IMI-Psoriasis Model,"IMI + 10 mg/kg, D10",5.9 ± 0.5
same,Mean PASI Scores in IMI-Psoriasis Model,"IMI + 10 mg/kg, D11",4.9 ± 0.3
same,Mean PASI Scores in IMI-Psoriasis Model,"IMI + 10 mg/kg, D12",3.1 ± 0.5
same,Mean PASI Scores in IMI-Psoriasis Model,"IMI + 10 mg/kg, D13",2.0 ± 0.4
same,Mean PASI Scores in IMI-Psoriasis Model,"IMI + 10 mg/kg, D14",1.3 ± 0.3
same,Mean PASI Scores in IMI-Psoriasis Model,"IMI + 10 mg/kg, D15",0.9 ± 0.4
same,"erythema, induration and peeling of the skin at the area of induction","mouse, in vivo",significantly reduced
same,use of enrichment (nesting),relative to vehicle-treated psoriasis animals,similarly restored use of nesting

# From patent US20260217701A1, “SELECTIVE BET INHIBITORS AND USES THEREOF” (Tay Therapeutics Limited, priority 2022, published 2026)
